# Assays:
# NB13 (Neuroblastoma) = experiment: Bliss excess, mean over the matrix (fraction); higher = more synergy
# How it was run: (§1)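 Cell lines grown in DMEM/F12 or RPMI with 10% FBS were plated in 1536-well plates and held 24 hours at 37°C, 5% CO2 before 72 hours of exposure to two-drug dose matrices, with DMSO typically at 0.2%. CellTiter-Glo 2.0 luminescence gave viability, which was converted to inhibition. Vehicle wells were set to 0 and blank wells to 1. Combination Emax is the second-highest inhibition in the matrix, and Bliss excess is the observed combination effect minus the expected EA + EB − EA·EB, where EA and EB are the single-agent effects.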
# KP-N-YN (Neuroblastoma) = experiment: as above
# How it was run: as §1
compound,measurement,setting,value
"CN(CCO)CC[C@H](CSc1ccccc1)Nc1ccc(S(=O)(=O)NC(=O)c2ccc(N3CCC([C@@H](O)c4ccccc4-c4ccc(Cl)cc4)CC3)cc2)cc1S(=O)(=O)C(F)(F)F [AZD4320] + Nc1ccn([C@@H]2O[C@H](CO)[C@@H](O)C2(F)F)c(=O)n1 [Gemcitabine] (first compound max 1 µM, 7x7, partner max 0.3 µM)",Bliss excess,NB13 (Neuroblastoma),0.0074
"CN(CCO)CC[C@H](CSc1ccccc1)Nc1ccc(S(=O)(=O)NC(=O)c2ccc(N3CCC([C@@H](O)c4ccccc4-c4ccc(Cl)cc4)CC3)cc2)cc1S(=O)(=O)C(F)(F)F [AZD4320] + CC(=O)O[C@H]1C(=O)[C@@]2(C)[C@H]([C@H](OC(=O)c3ccccc3)[C@]3(O)C[C@H](OC(=O)[C@H](O)[C@@H](NC(=O)c4ccccc4)c4ccccc4)C(C)=C1C3(C)C)[C@]1(OC(C)=O)CO[C@@H]1C[C@@H]2O [Paclitaxel] (first compound max 1 µM, 7x7, partner max 3 µM)",Bliss excess,KP-N-YN (Neuroblastoma),0.0826
"N#Cc1cnc(Nc2cc(NC[C@H]3CNCCO3)c(C(F)(F)F)cn2)cn1 [SRA737] + O=c1[nH]cc(F)c(=O)[nH]1 [5-Fluorouracil] (first compound max 10 µM, 7x7, partner max 20 µM)",Bliss excess,NB13 (Neuroblastoma),-0.0699
same,Bliss excess,KP-N-YN (Neuroblastoma),-0.0468
"Cc1cc2ncnn2cc1Nc1ncc2c(n1)n(C1CCOCC1)c(=O)n2C [AZD7648] + COc1cc([C@@H]2c3cc4c(cc3[C@@H](O[C@@H]3O[C@@H]5CO[C@@H](C)O[C@H]5[C@H](O)[C@H]3O)[C@H]3COC(=O)[C@H]23)OCO4)cc(OC)c1O [Etoposide] (first compound max 10 µM, 7x7, partner max 10 µM)",Bliss excess,NB13 (Neuroblastoma),-0.0803
same,Bliss excess,KP-N-YN (Neuroblastoma),0.0446
"N#Cc1cnc(Nc2cc(NC[C@H]3CNCCO3)c(C(F)(F)F)cn2)cn1 [SRA737] + CCc1c2c(nc3ccc(O)cc13)-c1cc3c(c(=O)n1C2)COC(=O)[C@]3(O)CC [SN-38] (first compound max 10 µM, 7x7, partner max 0.3 µM)",Bliss excess,NB13 (Neuroblastoma),0.129
same,Bliss excess,KP-N-YN (Neuroblastoma),-0.0189
"N#Cc1cnc(Nc2cc(NC[C@H]3CNCCO3)c(C(F)(F)F)cn2)cn1 [SRA737] + C=CCn1c(=O)c2cnc(Nc3ccc(N4CCN(C)CC4)cc3)nc2n1-c1cccc(C(C)(C)O)n1 [AZD1775] (first compound max 10 µM, partner max 1 µM)",Bliss excess,NB13 (Neuroblastoma),0.0322
same,Bliss excess,KP-N-YN (Neuroblastoma),0.0762
